Source: the supplement of paper PMC10307832

Assays:
Assay in all cases: relative viability (nuclei count vs DMSO), 5 days (fraction); higher = more cells survive
RO-3306 + OSI-027 = compound: C1=CC2=C(C=CC(=C2)C=C3C(=O)NC(=NCC4=CC=CS4)S3)N=C1 [RO-3306] + COc1cccc2cc(-c3nc([C@H]4CC[C@H](C(=O)O)CC4)n4ncnc(N)c34)[nH]c12 [OSI-027] (partner 0.5 µM)
Outline: (§1)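 Lung cancer cell lines, seeded in 1536-well plates, were treated the following day by pin tool with a single drug or with five library-drug doses (not always all listed) in √10 steps on top of a fixed anchor-drug dose. Cells were fixed and nuclei stained in one step after 5 days, and nuclei were counted. Relative viability is the nuclei count for treated wells divided by that for vehicle wells, reported as medians of duplicate plates.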

RO-3306 + Alpelisib = compound: C1=CC2=C(C=CC(=C2)C=C3C(=O)NC(=NCC4=CC=CS4)S3)N=C1 [RO-3306] + Cc1nc(NC(=O)N2CCC[C@H]2C(N)=O)sc1-c1ccnc(C(C)(C)C(F)(F)F)c1 [Alpelisib] (partner 2 µM)
Outline: as §1

[1] = compound: O=S(=O)(c1ccccc1)N(CC(F)(F)F)c1ccc(C(O)(C(F)(F)F)C(F)(F)F)cc1 + CC(C)C[C@H](NC(=O)[C@H](Cc1ccccc1)NC(=O)c1cnccn1)B(O)O [Bortezomib] (partner 0.002 µM)
Outline: as §1

[2] = compound: O=S(=O)(c1ccccc1)N(CC(F)(F)F)c1ccc(C(O)(C(F)(F)F)C(F)(F)F)cc1 + Cc1nc(Nc2ncc(C(=O)Nc3c(C)cccc3Cl)s2)cc(N2CCN(CCO)CC2)n1 [Dasatinib] (partner 0.075 µM)
Outline: as §1

| Cell Line | relative viability (RO-3306 + OSI-027; first compound 0.01 µM) | relative viability (RO-3306 + OSI-027; first compound 0.03162 µM) | relative viability (RO-3306 + OSI-027; first compound 0.1 µM) | relative viability (RO-3306 + OSI-027; first compound 0.3162 µM) | relative viability (RO-3306 + OSI-027; first compound 1 µM) | relative viability (RO-3306 + Alpelisib; first compound 0.01 µM) | relative viability (RO-3306 + Alpelisib; first compound 0.03162 µM) | relative viability (RO-3306 + Alpelisib; first compound 0.1 µM) | relative viability (RO-3306 + Alpelisib; first compound 0.3162 µM) | relative viability (RO-3306 + Alpelisib; first compound 1 µM) | relative viability ([1]; first compound 0.8 µM) | relative viability ([1]; first compound 2.53 µM) | relative viability ([1]; first compound 8 µM) | relative viability ([2]; first compound 0.8 µM) | relative viability ([2]; first compound 2.53 µM) | relative viability ([2]; first compound 8 µM) |
| --- | --- | --- | --- | --- | --- | --- | --- | --- | --- | --- | --- | --- | --- | --- | --- | --- |
| NCI-H520 | 0.288 | 0.283 | 0.225 | 0.254 | 0.304 | 0.992 | 0.811 | 0.838 | 0.854 | 0.836 | 0.962 | 0.785 | 0.626 | 0.235 | 0.211 | 0.26 |
| NCI-H596 | 0.788 | 0.72 | 0.7 | 0.729 | 0.579 | 0.443 | 0.48 | 0.49 | 0.511 | 0.432 | 0.997 | 0.791 | 0.843 | 0.594 | 0.566 | 0.52 |
| NCI-H647 | 0.644 | 0.608 | 0.636 | 0.84 | 0.673 | 1.76 | 0.954 | 1.09 | 1.16 | 1.28 | 1.27 | 1.03 | 0.967 | 0.142 | 0.162 | 0.208 |
| NCI-H650 | 0.473 | 0.471 | 0.492 | 0.483 | 0.501 | 0.872 | 0.981 | 1.03 | 1.1 | 1.05 | 0.832 | 0.776 | 0.823 | 0.368 | 0.425 | 0.479 |
| NCI-H661 | 0.853 | 0.597 | 0.695 | 0.72 | 0.701 | 0.736 | 0.735 | 0.686 | 0.745 | 0.688 | 0.885 | 0.883 | 0.642 | 1.03 | 0.886 | 0.832 |
| NCI-H727 | 0.567 | 0.548 | 0.557 | 0.608 | 0.674 | 0.622 | 0.531 | 0.517 | 0.716 | 0.786 | 1.23 | 0.762 | 0.737 | 0.408 | 0.302 | 0.325 |
| NCI-H838 | 0.334 | 0.394 | 0.35 | 0.412 | 0.373 | 0.992 | 0.972 | 1.01 | 1.04 | 0.999 | 0.907 | 0.863 | 0.906 | 0.273 | 0.303 | 0.325 |
| NCI-H1355 | 0.379 | – | 0.378 | 0.375 | 0.337 | 1 | 0.709 | 0.872 | 0.969 | 0.822 | 1.39 | 1.12 | 1.1 | 0.771 | 0.661 | 0.663 |
| NCI-H1437 | 0.936 | 0.814 | 0.825 | 0.912 | 0.878 | 1.05 | 0.868 | 0.999 | 1 | 0.929 | 0.485 | 0.423 | 0.588 | 0.327 | 0.297 | 0.287 |
| NCI-H1563 | 0.671 | 0.733 | 0.736 | 0.735 | 0.725 | 0.992 | 0.906 | 0.823 | 1 | 0.898 | 0.915 | 0.927 | 0.685 | 0.402 | 0.427 | 0.435 |
| NCI-H1651 | 0.796 | 0.564 | 0.633 | 0.794 | 0.609 | 1.07 | 0.927 | 0.913 | 0.867 | 0.987 | 0.981 | 0.957 | 0.797 | 0.486 | 0.434 | 0.306 |
| NCI-H1666 | 0.747 | 0.73 | 0.749 | 0.817 | 0.853 | 1.02 | 0.743 | 0.891 | 0.973 | 0.802 | 0.948 | 0.696 | 0.685 | 0.765 | 0.68 | 0.683 |
| NCI-H1734 | 0.653 | 0.582 | 0.529 | 0.615 | 0.514 | 0.687 | 0.595 | 0.697 | 0.726 | 0.719 | 1.18 | 0.917 | 1.07 | 0.553 | 0.464 | 0.462 |
| NCI-H1755 | 0.777 | 0.736 | 0.652 | 0.702 | 0.635 | 1.02 | 0.772 | 0.958 | 0.904 | 0.859 | 1.07 | 0.933 | 1.03 | 0.373 | 0.368 | 0.429 |
| NCI-H1792 | 0.896 | – | 0.743 | 0.81 | 0.551 | 0.803 | – | 0.668 | 0.757 | 0.457 | 0.973 | 0.842 | 0.737 | 0.712 | 0.587 | 0.506 |
| NCI-H1915 | 0.698 | 0.594 | 0.613 | 0.637 | 0.396 | 1.11 | 0.988 | 1.08 | 1.11 | 1.05 | 1.08 | 0.964 | 0.974 | 0.284 | 0.276 | 0.291 |

| Cell Line | relative viability (RO-3306 + OSI-027; first compound 0.01 µM) | relative viability (RO-3306 + OSI-027; first compound 0.03162 µM) | relative viability (RO-3306 + OSI-027; first compound 0.1 µM) | relative viability (RO-3306 + OSI-027; first compound 0.3162 µM) | relative viability (RO-3306 + OSI-027; first compound 1 µM) | relative viability (RO-3306 + Alpelisib; first compound 0.01 µM) | relative viability (RO-3306 + Alpelisib; first compound 0.03162 µM) | relative viability (RO-3306 + Alpelisib; first compound 0.1 µM) | relative viability (RO-3306 + Alpelisib; first compound 0.3162 µM) | relative viability (RO-3306 + Alpelisib; first compound 1 µM) | relative viability ([1]; first compound 0.8 µM) | relative viability ([1]; first compound 2.53 µM) | relative viability ([1]; first compound 8 µM) | relative viability ([2]; first compound 0.8 µM) | relative viability ([2]; first compound 2.53 µM) | relative viability ([2]; first compound 8 µM) |
| --- | --- | --- | --- | --- | --- | --- | --- | --- | --- | --- | --- | --- | --- | --- | --- | --- |
| NCI-H1975 | 0.959 | 0.614 | 0.655 | 0.788 | 0.613 | 0.882 | 0.507 | 0.615 | 0.675 | 0.67 | 0.327 | 0.415 | 0.299 | 0.353 | 0.339 | 0.298 |
| NCI-H1993 | 0.6 | 0.581 | 0.507 | 0.614 | 0.543 | – | 0.657 | 0.712 | 0.589 | 0.666 | 1.12 | 0.824 | 1.03 | 0.451 | 0.441 | 0.544 |
| NCI-H2009 | 0.656 | 0.56 | 0.624 | 0.622 | 0.615 | 1.18 | 1.18 | 1.21 | 1.12 | 1.27 | 0.91 | 0.891 | 0.929 | 0.241 | 0.249 | 0.302 |
| NCI-H2023 | 0.429 | 0.373 | 0.36 | 0.419 | 0.283 | 0.758 | 0.448 | 0.558 | 0.661 | 0.564 | 1 | 0.899 | 0.831 | 0.547 | 0.434 | 0.369 |
| NCI-H2085 | 0.598 | 0.728 | 0.642 | 0.664 | 0.635 | 1.07 | 0.926 | 0.922 | 0.968 | 0.952 | 1.12 | 0.943 | 1.02 | 0.226 | 0.238 | 0.204 |
| NCI-H2087 | 0.534 | 0.462 | 0.529 | 0.539 | 0.538 | 1.12 | 1.2 | 1.08 | 0.91 | 1.08 | 0.915 | 0.82 | 0.793 | 0.72 | 0.713 | 0.74 |
| NCI-H2126 | 0.627 | 0.597 | 0.707 | 0.708 | 0.727 | 0.717 | 0.698 | 0.752 | 0.786 | 0.8 | 1.26 | 1.1 | 1.12 | 0.753 | 0.634 | 0.535 |
| NCI-H2228 | 0.652 | 0.411 | 0.557 | 0.685 | 0.429 | 0.623 | 0.777 | 0.865 | 0.673 | 0.609 | 1.13 | 0.872 | 0.906 | 0.415 | 0.401 | 0.363 |
| NCI-H2347 | 0.449 | 0.404 | 0.421 | 0.249 | 0.356 | 1.13 | 0.759 | 1.01 | 1.05 | 0.951 | 1.32 | 0.819 | 0.92 | 0.263 | 0.24 | 0.289 |
| NCI-H2405 | 0.609 | 0.591 | 0.629 | 0.614 | 0.626 | 0.801 | 0.707 | 0.784 | 0.874 | 0.695 | 1.02 | 0.952 | 0.885 | 0.117 | 0.15 | 0.134 |
| NCI-H3122 | 1.11 | 0.849 | 1.03 | 1.03 | 1.01 | 0.635 | 0.738 | 0.832 | 0.762 | 0.788 | 0.989 | 0.963 | 0.907 | 0.725 | 0.525 | 0.817 |
| PC-3 [JPC-3] | 0.851 | 0.718 | 0.787 | 0.681 | 0.741 | 1.1 | 1 | 1.02 | 0.98 | 0.98 | 0.642 | 0.743 | 0.744 | 1.03 | 1.05 | 0.972 |
| PC-14 | 0.895 | 0.609 | 0.76 | 1.37 | 0.86 | 0.981 | – | 0.939 | 0.953 | 0.996 | 0.986 | 0.88 | 0.496 | 0.265 | 0.213 | 0.106 |
| RERF-LC-KJ | 0.632 | 0.53 | 0.556 | 0.598 | 0.556 | 1.01 | 0.708 | 0.706 | 0.836 | 0.768 | 1.12 | 0.95 | 1.02 | 0.753 | 0.652 | 0.641 |
| SK-LU-1 | 0.283 | 0.285 | 0.325 | 0.314 | 0.339 | 1.03 | 1.07 | 0.951 | 1.02 | 0.973 | 1.09 | 1.04 | 1.38 | 0.161 | 0.166 | 0.177 |
| SW 1573 | 0.683 | – | 0.603 | 0.607 | 0.578 | 0.701 | – | 0.848 | 0.832 | 0.905 | 1.34 | 0.936 | 0.811 | 0.576 | 0.46 | 0.451 |
